Laboratory results as given in patent US7258861B2, “TNF-derived peptides for use in treating oedema” (Innogenetics N.V., priority 2001, dated 2007).
Where “and” joins values, the source holds several entries; their conditions need not be identical. Equal values may be shown once. Positions of bridges follow the written chain, without caps; N, C: chain ends. Residues, ends and D or L forms follow the SMILES beside them. No end group written: not given here. *: point of attachment. Biotin = O=C1N[C@H]2[C@H](CS[C@H]2CCCCC(=O)*)N1

Tests used:
[1] = tested on: ex vivo instilled rat lung; assay: Ex vivo rat flooded lung, model of hydrostatic edema; conditions: for activity in fluid clearance / clearing alveolar fluid content ex vivo: summary in words; for clearing alveolar fluid content ex vivo: after intratracheal instillation
Procedure: In this model edema is induced by instillating 2 ml of 0.9% NaCl solution intratracheally. Alternatively, edema formation can be modulated by varying the height of the venous outflow and the perfusion buffer containing reservoir, or alternatively by varying the time the lung is exposed to the elevated pressure. […] The clearance of alveolar fluid from the lung is calculated by means of measuring the concentration of HSA, which is added to the instillate over time. Alternatively, the over time weight loss as a measure of edema resorption (high weight loss is high liquid clearance), of the artificially instilled lung can be measured. The lung tidal volume, compliance and weight are monitored continuously during the experiment. At the end of the experiment bronchoalveolar fluid and supernatant of lung homogenate is taken for measurement of inflammatory mediators.
The lungs of female Wistar rats (weight 200–250 g; Harlan-Winkelmann, Borchen, Germany) are prepared after terminal i.p. anesthesia by 160 mg/kg pentobarbitural —Na (Merial Ltd, Halbermoos, Germany) and perfused as described by Uhlig and Wolin (1994), and by Uhlig and von Bethmann (1997). All equipment is obtained from Hugo Sachs Electronics (March-Hugstetten, Germany). […] As perfusion medium, a Krebs-Henseleit buffer (38° C.) containing 2% bovine serum albumin (Fraction V, Scrva. Heidelberg, Germany), 0.1% glucose (Riedel-de-Haën Inc., Seelze, Germany), and 0.3% HEPES (ICN Biomedicals Inc., Ohio, USA) is used. The total amount of recirculating buffer is 100 ml. The lungs are suspended by the trachea and ventilated by negative pressure ventilation (inspiratory pressure: −7 cm H2O, expiratory pressure: −2 cm H2O) with 80 breaths per minute resulting in a tidal volume of approximately 2 ml. Every 5 minutes, a deep inspiratory breath (−20 cm H2O) is performed. Artificial thorax chamber pressure is measured with a differential pressure transducer (Validyne DP 45-14), and an air flow velocity with a pneumotachograh tube (Fleisch Type 0000) connected to a differential pressure transducer (Validyne DP 45-15). The perfusate flow (Narcomatic RT-500) and the arterial and venous pressure (Statham P23BB) are continuously monitored. The pH of the perfusate before entering the lung is kept at 7.25 to 7.35 by automatic bubbling of the buffer with CO2 as soon as the pH exceeds this range. A weight transducer is integrated into the chamber lid which allows the continuous assessment of lung weight. Data are recorded on a Pentium II computer using the Mathlab Sofware package (Mathworks, Inc., Nattick Mass., USA). For lung mechanics, the data are analyzed by applying the following formula: P=1/C*VT+RLdV/dT
Where P is chamber pressure, C pulmonary compliance, VT tidal volume, and RL airway resistance. All lung physiology parameters were normalized to time point 0, i.e. after the end of the preconditioning perfusion of 40 minutes.

isolated rat lungs = assay: Isolated blood perfused flooded rat lung (weight, lung mechanics, PV curves, histology); conditions: pretreated lungs after flooding and 2 hours reperfusion
Procedure: Rats. For the ex vivo experiments, 31 Sprague-Dawley rats (300 to 350 g) were tracheotomized and mechanically ventilated (40% oxygen in air) under isoflurane anesthesia. The experimental protocol was reviewed and approved by the Ethics Committee for Animal Research and by the Veterinary Office of our institution. The femoral vessels were cannulated for blood sampling, fluid replacement, and continuous arterial blood pressure monitoring. Following anticoagulation (1.5 IU/g i.v. heparin), 20 ml of blood were withdrawn and replaced by an equal volume of dextran-40 (Macrodex 10% in normosaline) to serve as priming volume for the isolated perfusion circuit. The heart-lung block was prepared as described by Ma et al., 2000, weighed and assigned to one of four groups. […] The lungs were suspended, mechanically ventilated, and perfused at constant pressure with autologous blood as described by Ma et al., 2000.
An inspiratory and expiratory quasi-static pressure-volume (PV) curve was performed at the end of the 2-hour reperfusion period by inflating and then deflating the lungs at a constant rate (0.3 ml/sec) using an automated infusion pump. A sigh was applied in all groups every 15 minutes to minimize atelectasis formation. The blood pH was maintained between 7.3 and 7.5 and, if necessary, corrected with sodium bicarbonate 8.4% or a change of the inspired CO2 as required by the blood gas analysis. Every 30 minutes, a blood sample was collected for blood gas analysis as well as for hematocrit and electrolyte concentration.
Inclusion criteria. Immediately following the start of reperfusion, the preparation had to fulfill three technical inclusion criteria: • 1) left atrial pressure (LAP) 5-10 mmHg; • 2) peak airway pressure (AWP) <15 cmH2O; and • 3) pulmonary blood flow (PBF) >10 ml/min. […] The included lungs were then flooded with gentle intratracheal instillation of 2 ml normal saline and the recorded variables measured for 2 subsequent hours.
Histological analysis. Random lung samples were fixed for light and electron microscopy and analyzed by pathologists blinded to the lung's protocol group assignment.

[2] = tested on: left lung of Fischer (F344) rats; assay: Rat model of lung reperfusion injury (warm ischemia and reperfusion); type: in vivo
Procedure: In a modification of the model of Ohno et al. (1993) male Fischer (F344) rats (200–250 g) undergo clamping of the left pulmonary artery, pulmonary vein and main bronchus for 36 minutes of warm ischemia. After reperfusion of the left lung, the right lung is occluded to assess the function of the left lung for 90 minutes. The peptide is given at 3 minutes after reperfusion by either instillation or intravenous injection via the subclavian vein.
• 1. Anaesthesia of the rat in a glass chamber, 4% Halothane and Oxygen 4/min. • 2. Intubation of the rat with a 1.8 mm catheter, • 3. Shaving the fur on the abdomen and left side of the animal. • 4. Ventilation via the tracheal tube 100/min, 2.5 ml 20% oxygen, Harvard Rodent Ventilator (Harvard Apparatus, South Natick, Mass.), PEEP 5 mm H2O. • 5. A left thoracotomy is carried out in the in 4th intercostal space. • 6. Dissection of the left lung hilar region. • 7. Microvascular clips are placed around the left pulmonary artery (PA), Pulmonary vein (PV) and left main bronchus (B) to induce warm ischemia of the left lung. Small circulation is still ongoing through the right lung. This is the start of the Warm Ischemia Time (WIT). • 8. Anaesthaesia is maintained with 2% Halothane, 40% Oxygen. • 9. A provisory Z suture is made to temporary close the thoracotomy and a gaze sponge is put on the animal to decrease warmth loss. • 10. Near the end of the WIT, a thoracophrenolaparatomy in the midline with thorough electrocaterisation. (two peans on the sternum). • 11. Putting 2-0 Softsilk on the trachea around the intubation tube. • 12. Dissection of the right hilar elements. • 13. Taking away microvascular clips from the left hilar elements. End of WIT of the left lung after 36 minutes. • 14. Putting microvascular clips on right PA and B. Small circulation only through left lung. Start developing of left oedema time (LLOT). • 15. After 3 minutes of LLOT: instillation of the drug in 0.5 ml of 0.9% saline solution (Baxter) or injection of the drug in 0.25–0.3 ml of 0.9% saline through the subclavian vein. • 16. After 6, 30, 60 and 90 minutes of LLOT, puncture of the Aortic Arch (AA) with needle for blood gas analysis in Radiometer ABL 700 Serie, (Denmark). • 17. After each puncture the AA puncture hole is pressed with a cotton swab. • 18. Blood gas analysis is taken every time from AA (the heart rate should be over 60). • 19. After the last blood gas analysis (90 minutes), both lungs are flushed via the PA with 20 ml of 0.9% saline at a pressure of 20 cm H2O. […] The heart-lung block is excised for storage under formaline or in the freezer awaiting immunohistopathological analysis. Alternatively, the lung can be excised without flushing to assess wet to dry ratio's. Results (FIG. 7)

[3] = tested on: lung microvascular endothelial cells; assay: Whole-cell patch clamp, membrane conductance in lung microvascular endothelial cells; type: cell-based, mouse; conditions: 30 min preincubation at acidic pH (pH 6); TNF, mutTNF 100 ng/ml, peptides 100 μg/ml
Excerpt: Animals, cells and reagents. Male CBA/J or C57BL/6 mice, as well as male TNFR ½^0/0 C57BL/6 mice deficient in TNF receptors (Bruce et al., 1996) provided by H. Bluethmann, F. Hoffmann-La Roche, Basel, Switzerland, were used at the age of 8–10 weeks. Their care was in accordance with institutional guidelines. Lung microvascular endothelial cells were isolated from CBA/J mice and characterized as described (Jackson et al., 1990) using magnetic beads (Dynabeads M-450, Dynal, Oslo, Norway), covalently bound to a purified rat-anti-mouse PECAM-1 monoclonal antibody (donated by B. Imhof, University of Geneva). Microvascular lung endothelial cells were resuspended in DMEM containing 2 mM L-glutamine, 100 U/ml penicillin, […], 20% FCS, 40 U/ml heparin and […] endothelial cell growth supplement (Brunschwig Chemie, Basel, Switzerland). For patch clamp experiments, cells were plated onto 35×10 mm easy grip Petri dishes (Beckton Dickinson, Plymouth, UK), pre-coated with 0.2% gelatin (Sigma, Buchs, Switzerland). Resident peritoneal macrophages, isolated in ice cold RPMI containing antibiotics and 10 U/ml Heparin, were left to adhere onto 35×10 mm easy grip Petri dishes for 4 h, after which the non-adherent cells were removed. Cells were grown in RPMI 1640 containing 2 mM L-glutamine, 100 U/ml penicillin, 10 μpg/ml streptomycin and 10% fetal bovine serum (all from Gibco). For patch clamp, the macrophages ware used 24 h after isolation.
Electrophysiology. Cells were pretreated for 30 min with TNF, mutTNF and tip peptides at 37° C. in a buffer consisting of 145 mM NaCl, 3 mM KCl, 2mM CaCl2, 2mM MgCl2, 10 mM D-glucose, and 10mM Hepes, and pH-adjusted with NaOH to required value. Cells were then washed with the same buffer pH-adjusted at 7.3, and experiments were performed using the tight-seal, whole-cell recording technique. Currents were recorded with an Axopatch-200A amplifier (Axon Instrument Inc, Foster City, Calif., USA), low pass-filtered at 1 kHz. Digitalization and off-line analysis was performed using the WCP program (J. Dempster, Strathclyde Electrophysiology Software, Glasgow, UK). Patch pipettes were pulled from borosilicate glass and fire polished to have an open resistance of 3–5 MW with an internal solution containing […], 2 mM MgCl2, 10mM EGTA, 20 mM TEA-Cl, 10 mM D-glucose 10 mM Hepes, pH-adjusted to 7.3 with CsOH. Series resistances were kept under 10 MW. Capacitance and series resistance compensation were applied and set to 70%. All experiments were done at room temperature. Results are given as mean ±SEM, unless otherwise indicated. Analysis of variance was performed on currents and membrane conductance values, with post-hoc Dunn-Bonferroni test for significance of differences observed between two groups. A P value of 0.05 was considered significant.

[4] = measured 80 minutes after instillation

Question: Which results are given for “CGQRETPEGAEAKPWY (Biotin-CGQRETPEGAEAKPWY) [linear hum Ltip]”?
Answer: activity in fluid clearance [1, 4]: equally active; activity in fluid clearance ([1]; measuring for 100 minutes after instillation): less active; Weight loss of ex vivo instilled rat lung over 80 min ([1]; synthetic peptide 1000 μg/lung): 498 mg and 863 mg and 585 mg and 462 mg

Question: `CC(C)C[C@@H]1NC(=O)[C@H](CCC(=O)O)NC(=O)[C@H](Cc2c[nH]c3ccccc23)NC(=O)[C@@H]2CCCN2C(=O)[C@H](CCCCN)NC(=O)[C@H]([C@@H](C)O)NC(=O)CNC(=O)[C@@H](N)CSSC[C@@H](C(=O)O)NC(=O)[C@H](Cc2ccc(O)cc2)NC(=O)[C@H](C)NC(=O)[C@@H]2CCCN2C(=O)[C@H](CCCCN)NC(=O)[C@H](CCC(=O)O)NC(=O)[C@H](CC(=O)O)NC(=O)[C@@H]2CCCN2C(=O)CNC1=O` [cyclic mu scrambl Tip, reference compound] (H-CGTKPWELGPDEKPAYC-OH; disulfide 1-17) was tested. Which “endothelial flaps and epithelial blebs (electron microscopy)” value (isolated rat lungs) did it give?
Answer: Its value is “less evident”.

Question: Which “pO2 blood gas levels” value ([2]; 6 to 90 minutes of LLOT, cyclic hum Ltip 500 μg/kg to 5 μg/kg, hum mut Tip 500 μg/kg) does the source give for “CGQREAPAGAAAKPWYC (disulfide 1-17) [hum mut Tip, reference compound]” here?
Answer: Its value is “followed completely the values seen in the control animals”.

Question: What about the “gain in pO2 blood gas” value ([2]; iv application) of the same molecule?
Answer: The value was “no effect”.

Question: And the “clearing alveolar fluid content ex vivo” value [1]?
Answer: The value was “inactive”.

Question: Which results are given for “CTPEGAEC (Biotin-CTPEGAEC; cysteine pairing not given here; listed as Mus musculus) [STip]”?
Answer: whole cell current / membrane conductance [3]: failed to induce a voltage-dependent current; activity in fluid clearance [1, 4]: equally active; Weight loss of ex vivo instilled rat lung over 80 min ([1]; synthetic peptide 1000 μg/lung): 507 mg and 607 mg and 781 mg and 703 mg and 744 mg; Weight loss of ex vivo instilled rat lung over 100 min ([1]; synthetic peptide 1000 μg/lung): 836 mg and 535 mg and 684 mg and 891 mg and 849 mg

Question: “GG-COTKPWELOPDEKPAYC [scramblTip, reference compound]” was tested. Which “whole cell current / membrane conductance” value [3] did it give?
Answer: The value was “inactive”.

Question: How did the “whole cell current / membrane conductance” value [3] turn out when “GG-CCIPKDAPAGAALKPWYC [mutTip, reference compound]” was run?
Answer: The value was “inactive”.

Question: Which results are given for `CC(C)(C)NCC(O)c1cc(O)cc(O)c1` (centres unmarked) [Terbutaline, reference compound]?
Answer: Weight loss of ex vivo instilled rat lung over 80 min ([1]; Terbutalin 1 mM alone, individual lungs): 1035 mg and 872 mg and 1219 mg and 1119 mg and 822 mg and 1075 mg and 675 mg and 730 mg and 1000 mg and 923 mg and 880 mg and 702 mg; Weight loss of ex vivo instilled rat lung over 100 min ([1]; Terbutaline 1 mM + Chitobiose 500 μg): 800 mg; Weight loss of ex vivo instilled rat lung over 100 min ([1]; Terbutaline 1 mM alone, individual lungs): 805 mg and 1223 mg and 1425 mg and 1370 mg; clearing alveolar fluid content ex vivo [1]: capable of clearing alveolar fluid content
